Measurements reported in patent US6737383B1, “Herbicidal oxadiazolidines” (priority 1999, dated 2004).

Columns and labels:
giant foxtail = assay: Test B pre/postemergence giant foxtail; type: in vivo, Setaria faberii
Outline: (§1)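 Herbicidal effect was estimated by eye on a ten-point control scale after plants spent twelve to sixteen days in a greenhouse following soil or foliar treatment. Foliar sprays targeted plants at one to four leaves; all doses were formulated in a non-phytotoxic solvent with surfactant.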

velvetleaf = assay: Test B pre/postemergence velvetleaf; type: in vivo, Abutilon theophrasti
Outline: as §1

rape = assay: Test B pre/postemergence rape; type: in vivo, Brassica napus
Outline: as §1

morningglory = assay: Test B pre/postemergence morningglory; type: in vivo, Ipomoea hederacea
Outline: as §1

pigweed = assay: Test B pre/postemergence pigweed; type: in vivo, Amaranthus retroflexus
Outline: as §1

wheat = assay: Test B pre/postemergence wheat; type: in vivo, Triticum aestivum
Outline: as §1

bedstraw = assay: Test B pre/postemergence bedstraw; type: in vivo, Galium aparine
Outline: as §1

wild oat = assay: Test B pre/postemergence wild oat; type: in vivo, Avena fatua
Outline: as §1

purple nutsedge = assay: Test B pre/postemergence purple nutsedge; type: in vivo, Cyperus rotundus
Outline: as §1

cocklebur = assay: Test B pre/postemergence cocklebur; type: in vivo, Xanthium strumarium
Outline: as §1

blackgrass = assay: Test B pre/postemergence blackgrass; type: in vivo, Alopecurus myosuroides
Outline: as §1

surinam grass = assay: Test B pre/postemergence surinam grass; type: in vivo, Brachiaria decumbens
Outline: as §1

sugar beet = assay: Test B pre/postemergence sugar beet; type: in vivo, Beta vulgaris
Outline: as §1

soybean = assay: Test B pre/postemergence soybean; type: in vivo, Glycine max
Outline: as §1

crabgrass = assay: Test B pre/postemergence crabgrass; type: in vivo, Digitaria sanguinalis
Outline: as §1

corn = assay: Test B pre/postemergence corn; type: in vivo, Zea mays
Outline: as §1

[1] = Postemergence, Rate 62 g/ha, scale of 0 to 10, 0 is no effect, 10 is complete control
[2] = Postemergence, Rate 125 g/ha, scale 0 to 10, 0 is no effect, 10 is complete control
[3] = Postemergence, Rate 500 g/ha, scale of 0 to 10 where 0 is no effect and 10 is complete control
[4] = Preemergence, Rate 62 g/ha, scale 0 to 10 (0 no effect, 10 complete control)
[5] = Preemergence, Rate 125 g/ha, scale 0 to 10, 0 is no effect, 10 is complete control
[6] = Preemergence, Rate 500 g/ha, scale of 0 to 10 where 0 is no effect and 10 is complete control
[7] = Rate 250 g/ha, Postemergence, scale of 0 to 10 where 0 is no effect and 10 is complete control

## CCCCCn1c(=O)on(C(=O)N(c2ccccc2)C(C)C)c1=O [Compound 557]
Giant foxtail; [1]
  Giant foxtail plant response rating: 0
Giant foxtail; [2]
  Giant foxtail plant response rating: 6
Giant foxtail; [3]
  Plant response rating, Giant foxtail: 6
Giant foxtail; [4]
  Giant foxtail plant response rating: 9
Giant foxtail; [5]
  Giant foxtail plant response rating: 9
Giant foxtail; Preemergence, Rate 250 g/ha
  Giant foxtail plant response rating (0 to 10 scale): 10
Giant foxtail; [6]
  Giant foxtail plant response rating: 10
Giant foxtail; [7]
  Plant response rating, Giant foxtail: 6
velvetleaf; [1]
  Velvetleaf plant response rating: 0
velvetleaf; [3]
  Plant response rating, Velvetleaf: 2
velvetleaf; [4]
  Velvetleaf plant response rating: 0
velvetleaf; [5]
  Velvetleaf plant response rating: 0
velvetleaf; Preemergence, Rate 250 g/ha
  Velvetleaf plant response rating (0 to 10 scale): 0
velvetleaf; [6]
  Velvetleaf plant response rating: 0
velvetleaf; [7]
  Plant response rating, Velvetleaf: 0
rape; [1]
  Rape plant response rating: 0
rape; [2]
  Rape plant response rating: 0
rape; [3]
  Plant response rating, Rape: 0
rape; [4]
  Rape plant response rating: 0
rape; [5]
  Rape plant response rating: 0
rape; Preemergence, Rate 250 g/ha
  Rape plant response rating (0 to 10 scale): 0
rape; [6]
  Rape plant response rating: 2
rape; [7]
  Plant response rating, Rape: 0
morningglory; [1]
  Morningglory plant response rating: 5
morningglory; [2]
  Morningglory plant response rating: 8
morningglory; [3]
  Plant response rating, Morningglory: 8
morningglory; [4]
  Morningglory plant response rating: 0
morningglory; [5]
  Morningglory plant response rating: 0
morningglory; Preemergence, Rate 250 g/ha
  Morningglory plant response rating (0 to 10 scale): 0
morningglory; [6]
  Morningglory plant response rating: 0
pigweed; [1]
  Redroot pigweed plant response rating: 0
pigweed; [3]
  Plant response rating, Redroot pigweed: 0
pigweed; [4]
  Redroot pigweed plant response rating: 0
pigweed; [5]
  Redroot pigweed plant response rating: 0
pigweed; Preemergence, Rate 250 g/ha
  Redroot pigweed plant response rating (0 to 10 scale): 3
pigweed; [6]
  Redroot pigweed plant response rating: 6
pigweed; [7]
  Plant response rating, Redroot pigweed: 0
wheat; [1]
  Wheat plant response rating: 0
wheat; [3]
  Plant response rating, Wheat: 0
wheat; [4]
  Wheat plant response rating: 0
wheat; [5]
  Wheat plant response rating: 0
wheat; Preemergence, Rate 250 g/ha
  Wheat plant response rating (0 to 10 scale): 0
wheat; [6]
  Wheat plant response rating: 3
wheat; [7]
  Plant response rating, Wheat: 0
bedstraw; [1]
  Bedstraw plant response rating: 0
bedstraw; [4]
  Bedstraw plant response rating: 0
bedstraw; [5]
  Bedstraw plant response rating: 0
bedstraw; Preemergence, Rate 250 g/ha
  Bedstraw plant response rating (0 to 10 scale): 0
bedstraw; [6]
  Bedstraw plant response rating: 0
bedstraw; [7]
  Plant response rating, Bedstraw: 0
Wild oat; [1]
  Wild oats plant response rating: 0
Wild oat; [3]
  Plant response rating, Wild oats: 0
Wild oat; [4]
  Wild oats plant response rating: 0
Wild oat; [5]
  Wild oats plant response rating: 2
Wild oat; Preemergence, Rate 250 g/ha
  Wild oats plant response rating (0 to 10 scale): 0
Wild oat; [6]
  Wild oats plant response rating: 7
Wild oat; [7]
  Plant response rating, Wild oats: 0
Purple nutsedge; [1]
  Nutsedge plant response rating: 0
Purple nutsedge; [2]
  Nutsedge plant response rating: 0
Purple nutsedge; [3]
  Plant response rating, Nutsedge: 0
Purple nutsedge; [4]
  Nutsedge plant response rating: 0
Purple nutsedge; [5]
  Nutsedge plant response rating: 0
Purple nutsedge; Preemergence, Rate 250 g/ha
  Nutsedge plant response rating (0 to 10 scale): 0
Purple nutsedge; [6]
  Nutsedge plant response rating: 0
Purple nutsedge; [7]
  Plant response rating, Nutsedge: 0
cocklebur; [1]
  Cocklebur plant response rating: 0
cocklebur; [2]
  Cocklebur plant response rating: 0
cocklebur; [3]
  Plant response rating, Cocklebur: 0
cocklebur; [4]
  Cocklebur plant response rating: 0
cocklebur; [5]
  Cocklebur plant response rating: 0
cocklebur; Preemergence, Rate 250 g/ha
  Cocklebur plant response rating (0 to 10 scale): 0
cocklebur; [6]
  Cocklebur plant response rating: 0
cocklebur; [7]
  Plant response rating, Cocklebur: 0
blackgrass; [1]
  Blackgrass plant response rating: 0
blackgrass; [2]
  Blackgrass plant response rating: 0
blackgrass; [3]
  Plant response rating, Blackgrass: 0
blackgrass; [4]
  Blackgrass plant response rating: 6
blackgrass; [5]
  Blackgrass plant response rating: 6
blackgrass; Preemergence, Rate 250 g/ha
  Blackgrass plant response rating (0 to 10 scale): 8
blackgrass; [6]
  Blackgrass plant response rating: 8
blackgrass; [7]
  Plant response rating, Blackgrass: 0
Surinam grass; [1]
  B. signalgrass plant response rating: 0
Surinam grass; [2]
  B. signalgrass plant response rating: 2
Surinam grass; [3]
  Plant response rating, B. signalgrass: 2
Surinam grass; [4]
  B. signalgrass plant response rating: 4
Surinam grass; [5]
  B. signalgrass plant response rating: 6
Surinam grass; Preemergence, Rate 250 g/ha
  B. signalgrass plant response rating (0 to 10 scale, 0 is no effect, 10 is complete control): 7
Surinam grass; [6]
  B. signalgrass plant response rating: 7
Surinam grass; [7]
  Plant response rating, B. signalgrass: 2
Sugar beet; [1]
  Sugarbeets plant response rating: 0
Sugar beet; [3]
  Plant response rating, Sugarbeets: 0
Sugar beet; [4]
  Sugarbeets plant response rating: 2
Sugar beet; [5]
  Sugarbeets plant response rating: 3
Sugar beet; Preemergence, Rate 250 g/ha
  Sugarbeets plant response rating (0 to 10 scale): 3
Sugar beet; [6]
  Sugarbeets plant response rating: 4
Sugar beet; [7]
  Plant response rating, Sugarbeets: 0
soybean; [1]
  Soybean plant response rating: 0
soybean; [3]
  Plant response rating, Soybean: 2
soybean; [4]
  Soybean plant response rating: 0
soybean; [5]
  Soybean plant response rating: 0
soybean; Preemergence, Rate 250 g/ha
  Soybean plant response rating (0 to 10 scale): 0
soybean; [6]
  Soybean plant response rating: 0
soybean; [7]
  Plant response rating, Soybean: 0
crabgrass; [1]
  Crabgrass plant response rating: 0
crabgrass; [2]
  Crabgrass plant response rating: 5
crabgrass; [3]
  Plant response rating, Crabgrass: 4
crabgrass; [4]
  Crabgrass plant response rating: 9
crabgrass; [5]
  Crabgrass plant response rating: 9
crabgrass; Preemergence, Rate 250 g/ha
  Crabgrass plant response rating (0 to 10 scale): 10
crabgrass; [6]
  Crabgrass plant response rating: 10
crabgrass; [7]
  Plant response rating, Crabgrass: 4
corn; [1]
  Corn plant response rating: 0
corn; [2]
  Corn plant response rating: 0
corn; [3]
  Plant response rating, Corn: 2
corn; [4]
  Corn plant response rating: 0
corn; [5]
  Corn plant response rating: 0
corn; Preemergence, Rate 250 g/ha
  Corn plant response rating (0 to 10 scale): 0
corn; [6]
  Corn plant response rating: 0
corn; [7]
  Plant response rating, Corn: 0
